Columns and labels:
Assay type in all cases: biochemical
[1] = target: fibroblast growth factor receptor 1 (FGFR1) (Homo sapiens, UniProt P11362); test: kinase panel ([…] human kinases), […] inhibition at […]
[2] = target: cyclin-dependent kinase 2 (CDK2) (Homo sapiens, UniProt P24941); test: kinase panel ([…] human kinases), […] inhibition at […]
DYRK1A = DYRK1A (Homo sapiens, UniProt Q13627); test: cell-free Z'-LYTE FRET kinase assay, dose-response; ATP competition
CDC-like kinase 2 (CLK2) = CDC-like kinase 2 (CLK2) (Homo sapiens, UniProt P49760); test: kinase panel ([…] human kinases), […] inhibition at […]
CDC-like kinase 2 (CLK2), sequence (P49760 whole entry): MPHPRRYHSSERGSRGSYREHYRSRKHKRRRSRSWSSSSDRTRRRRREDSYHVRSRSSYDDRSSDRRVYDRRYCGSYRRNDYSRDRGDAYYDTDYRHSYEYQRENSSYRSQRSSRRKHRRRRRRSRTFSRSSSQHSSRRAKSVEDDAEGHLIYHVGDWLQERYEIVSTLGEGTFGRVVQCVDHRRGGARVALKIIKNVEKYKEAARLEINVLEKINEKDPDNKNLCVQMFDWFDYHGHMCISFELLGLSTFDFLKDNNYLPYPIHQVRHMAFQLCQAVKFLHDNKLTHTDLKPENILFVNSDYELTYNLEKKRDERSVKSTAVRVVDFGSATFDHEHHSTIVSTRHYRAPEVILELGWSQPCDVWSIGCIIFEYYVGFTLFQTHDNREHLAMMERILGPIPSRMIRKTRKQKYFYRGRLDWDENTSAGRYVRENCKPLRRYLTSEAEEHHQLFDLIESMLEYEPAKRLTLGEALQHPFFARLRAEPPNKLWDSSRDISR

fibroblast growth factor receptor 1 (FGFR1), sequence (P11362 22-822): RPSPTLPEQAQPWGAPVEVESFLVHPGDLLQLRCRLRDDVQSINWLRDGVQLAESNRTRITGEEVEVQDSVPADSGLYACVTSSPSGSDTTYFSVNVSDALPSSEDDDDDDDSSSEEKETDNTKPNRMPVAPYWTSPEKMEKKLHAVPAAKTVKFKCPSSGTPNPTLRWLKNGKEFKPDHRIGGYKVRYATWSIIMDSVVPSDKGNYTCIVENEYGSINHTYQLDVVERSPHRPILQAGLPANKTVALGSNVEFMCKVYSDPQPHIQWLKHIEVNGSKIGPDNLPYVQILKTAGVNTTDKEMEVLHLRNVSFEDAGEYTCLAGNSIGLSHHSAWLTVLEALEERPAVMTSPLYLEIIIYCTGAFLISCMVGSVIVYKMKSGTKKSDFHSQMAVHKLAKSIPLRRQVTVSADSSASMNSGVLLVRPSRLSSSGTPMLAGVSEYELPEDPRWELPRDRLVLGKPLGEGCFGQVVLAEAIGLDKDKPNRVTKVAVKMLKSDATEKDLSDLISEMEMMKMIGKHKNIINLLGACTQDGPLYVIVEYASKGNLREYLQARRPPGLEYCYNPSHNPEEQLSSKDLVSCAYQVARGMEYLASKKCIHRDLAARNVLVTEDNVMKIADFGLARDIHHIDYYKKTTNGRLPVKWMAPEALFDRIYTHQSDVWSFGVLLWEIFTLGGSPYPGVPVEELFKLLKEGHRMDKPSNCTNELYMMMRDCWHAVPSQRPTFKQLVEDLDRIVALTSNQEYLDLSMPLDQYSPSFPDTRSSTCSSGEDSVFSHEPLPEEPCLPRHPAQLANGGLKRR

O=C1CC(c2c[nH]c3nccnc23)NN1 (stereo not shown) [compound 217908, NSC217908]
% inhibition at 3 μM [1]: 69
% inhibition at 3 μM [2]: 54
IC50 (DYRK1A): 949 nM
% inhibition at 3 μM (CDC-like kinase 2 (CLK2)): 89
